Where no end group is shown, it is not given here.
Tests used:
[1] = test system: CRF(1–16)/R1ΔN chimera of CRF1R (HEK 293 cells, transient expression); settings: ref Nielsen et al. 2000; cited from earlier work
3T3L1 mature adipocytes = assay: CXCL1 release from differentiated 3T3L1 white adipocytes; assay type: cell-based, mouse; settings: 10 nM CRF alone, 24 h, differentiated white 3T3L1 adipocytes, ELISA
RAW 264.7 cells = assay: Proliferation assay; assay type: cell-based; settings: 1 μM, third day of culture (72 h), MTT; n = 3 experiments

Molecule	block of the constitutive activity (activation) of the CRF(1–16)/R1ΔN chimera [1]	production of CXCL1 compared to untreated (control) cells (3T3L1 mature adipocytes)	proliferation rate of RAW 264.7 cells compared to vehicle-treated cells (RAW 264.7 cells)
CCCCN(CC)c1nc(C)nc2c1c(C)c(C)n2-c1c(C)cc(C)cc1C [antalarmin]	blocked		
corticotropin-releasing factor (SEEPPISLDLTFHLLREVLEMARAEQLAQQAHSNRKLMEII; ends and bridges not checked; UniProt P06850 154-194, looked up) [CRF]		significantly reduced	
astressin	not blocked		levels similar to those achieved with astressin

From article PMC7772748 (Amino acids, 2020)
